Values joined by “and” are separate entries in the source; they are usually repeats but may differ in a detail not shown here. Equal entries are not always repeated. Toxic doses and inconclusive results are not listed. No stated cut-off is given here; in the data, active means T/C of 150% or more; inactive means T/C below 125%.
Tested on: L1210 leukemia ip in BDF1 mice, survival T/C
Assay: NCI In Vivo Anticancer Drug Screen. Data for tumor model L1210 Leukemia (intraperitoneal) in B6D2F1 (BDF1) mice
Details: endpoint: mean survival time, higher = longer survival
In short: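 Transplantable tumor model; survival measured in treated vs vehicle control mice. Value = treated/control.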

[1] = dose: 100.0 mg/kg/injection, schedule: Q01DX001 (ip), vehicle: Klucel (hydroxypropylcellulose) (HPC)
[2] = dose: 200.0 mg/kg/injection, schedule: Q01DX001 (ip), vehicle: Klucel (hydroxypropylcellulose) (HPC)
[3] = dose: 100.0 mg/kg/injection, schedule: Q04DX003 (ip), vehicle: saline
[4] = dose: 200.0 mg/kg/injection, schedule: Q04DX003 (ip), vehicle: saline
[5] = dose: 100.0 mg/kg/injection, schedule: Q04DX003 (ip), vehicle: saline with Tween-80
[6] = dose: 200.0 mg/kg/injection, schedule: Q04DX003 (ip), vehicle: saline with Tween-80
[7] = dose: 400.0 mg/kg/injection, schedule: Q04DX003 (ip), vehicle: saline with Tween-80
[8] = dose: 100.0 mg/kg/injection, schedule: Q01DX009 (ip), vehicle: saline with Tween-80
[9] = dose: 100.0 mg/kg/injection, schedule: Q04DX003 (ip), vehicle: Klucel (hydroxypropylcellulose) (HPC)
[10] = dose: 200.0 mg/kg/injection, schedule: Q04DX003 (ip), vehicle: Klucel (hydroxypropylcellulose) (HPC)
[11] = dose: 400.0 mg/kg/injection, schedule: Q04DX003 (ip), vehicle: Klucel (hydroxypropylcellulose) (HPC)
[12] = dose: 12.5 mg/kg/injection, schedule: Q01DX009 (ip), vehicle: saline
[13] = dose: 25.0 mg/kg/injection, schedule: Q01DX009 (ip), vehicle: saline
[14] = dose: 400.0 mg/kg/injection, schedule: Q04DX003 (ip), vehicle: saline
[15] = dose: 100.0 mg/kg/injection, schedule: Q01DX001 (ip), vehicle: saline with Tween-80
[16] = dose: 200.0 mg/kg/injection, schedule: Q01DX001 (ip), vehicle: saline with Tween-80
[17] = dose: 400.0 mg/kg/injection, schedule: Q01DX001 (ip), vehicle: saline with Tween-80

Measured: T/C

O=[N+]([O-])c1cc(Cl)c(Cl)cc1NS(=O)(=O)c1ccccc1
inactive: dose: 25.0 mg/kg/injection, schedule: Q01DX Z (ip), vehicle: carboxymethylcellulose (CMC) 101 % of control | dose: 50.0 mg/kg/injection, schedule: Q01DX Z (ip), vehicle: carboxymethylcellulose (CMC) 98 % of control | dose: 100.0 mg/kg/injection, schedule: Q01DX Z (ip), vehicle: carboxymethylcellulose (CMC) 101 % of control | dose: 200.0 mg/kg/injection, schedule: Q01DX Z (ip), vehicle: carboxymethylcellulose (CMC) 96 % of control | dose: 275.0 mg/kg/injection, schedule: Q01DX015 (ip), vehicle: carboxymethylcellulose (CMC) 90 % of control | dose: 350.0 mg/kg/injection, schedule: Q01DX015 (ip), vehicle: carboxymethylcellulose (CMC) 98 % of control | dose: 425.0 mg/kg/injection, schedule: Q01DX015 (ip), vehicle: carboxymethylcellulose (CMC) 111 % of control | dose: 700.0 mg/kg/injection, schedule: Q01DX015 (ip), vehicle: carboxymethylcellulose (CMC) 86 % of control

O=c1cc(NCc2cccc([N+](=O)[O-])c2)[nH]c(=O)[nH]1
inactive: dose: 50.0 mg/kg/injection, schedule: Q01DX001 (ip), vehicle: Klucel (hydroxypropylcellulose) (HPC) 91 % of control | [1] 89 % of control | [2] 93 % of control

O=C(/C=C/c1ccccc1)CC(O)(C(F)(F)F)C(F)(F)F
inactive: dose: 100.0 mg/kg/injection, schedule: Q04DX003 (sc), vehicle: olive oil, sesame oil, peanut oil 113 % of control | dose: 200.0 mg/kg/injection, schedule: Q04DX003 (sc), vehicle: olive oil, sesame oil, peanut oil 113 % of control | dose: 400.0 mg/kg/injection, schedule: Q04DX003 (sc), vehicle: olive oil, sesame oil, peanut oil 108 % of control

CC(C)(C)c1cc(CN2CCCC(O)C2)c(O)c(-c2ccccc2)c1 (stereo not given)
inactive: [3] 98 % of control | [4] 98 % of control

CCCCCCCCCSCC
inactive: [5] 102 % of control | [6] 96 % of control | [7] 102 % of control

NC(CC(=O)O)C(=O)O.[Cu+2] (stereo not given)
inactive: dose: 5.0 mg/kg/injection, schedule: Q01DX009 (ip), vehicle: Klucel (hydroxypropylcellulose) (HPC) 106 % of control | dose: 10.0 mg/kg/injection, schedule: Q01DX009 (ip), vehicle: Klucel (hydroxypropylcellulose) (HPC) 104 % of control | dose: 20.0 mg/kg/injection, schedule: Q01DX009 (ip), vehicle: Klucel (hydroxypropylcellulose) (HPC) 108 % of control | dose: 20.0 mg/kg/injection, schedule: Q04DX003 (ip), vehicle: Klucel (hydroxypropylcellulose) (HPC) 100 % of control

CCC(=O)O[C@H]1CC[C@H]2[C@@H]3[C@@H](C)CC4=CC(=O)CC[C@]4(C)[C@H]3CC[C@]12C
inactive: [8] 93 % of control | [5] 90 % of control | [6] 90 % of control | dose: 400.0 mg/kg/injection, schedule: Q01DX009 (ip), vehicle: saline with Tween-80 91 % of control | [7] 87 % of control

C=CCc1ccc(OCCOCCN(C)C2CCCCC2)c(OC)c1
inactive: [9] 90 % of control

CS(=O)(=O)OCCN(CCOS(C)(=O)=O)c1ccc(C=Nc2ccc3ccccc3c2)c(Cl)c1
inactive: [9] 103 % of control and 107 % of control | [10] 113 % of control | [11] 118 % of control

Nc1ccccc1C(=O)OCCc1ccccc1
inactive: dose: 100.0 mg/kg/injection, schedule: Q01DX009 (ip), vehicle: Klucel (hydroxypropylcellulose) (HPC) 93 % of control | [9] 94 % of control | dose: 200.0 mg/kg/injection, schedule: Q01DX009 (ip), vehicle: Klucel (hydroxypropylcellulose) (HPC) 93 % of control | [10] 95 % of control | dose: 400.0 mg/kg/injection, schedule: Q01DX009 (ip), vehicle: Klucel (hydroxypropylcellulose) (HPC) 95 % of control | [11] 92 % of control

CC1CCN(C(=S)[S-])CC1.CC1CCN(C(=S)[S-])CC1.[Zn]
inactive: [12] 111 % of control | [13] 107 % of control | dose: 50.0 mg/kg/injection, schedule: Q01DX009 (ip), vehicle: saline 100 % of control | [3] 103 % of control

CC(C)(CO)N=Cc1cccc(Br)c1
inactive: dose: 100.0 mg/kg/injection, schedule: Q01DX001 (ip), vehicle: saline 96 % of control | dose: 200.0 mg/kg/injection, schedule: Q01DX001 (ip), vehicle: saline 98 % of control | dose: 400.0 mg/kg/injection, schedule: Q01DX001 (ip), vehicle: saline 98 % of control

Nc1c(Oc2cccc(C[N+]3(CCOS(=O)(=O)O)CC3)c2)cc(O)c2c1C(=O)c1ccccc1C2=O
inactive: dose: 100.0 mg/kg/injection, schedule: Q01DX001 (ip), vehicle: carboxymethylcellulose (CMC) 96 % of control | dose: 200.0 mg/kg/injection, schedule: Q01DX001 (ip), vehicle: carboxymethylcellulose (CMC) 93 % of control

O=P(N1CCOCC1)(N1CCOCC1)N1CCOCC1
inactive: [3] 100 % of control and 112 % of control | [4] 98 % of control and 106 % of control | [14] 97 % of control and 109 % of control

CC(C)(CO)N=Cc1ccccc1O.CC(C)(CO)N=Cc1ccccc1O.[Ni]
inactive: dose: 75.0 mg/kg/injection, schedule: Q01DX001 (ip), vehicle: other 110 % of control | dose: 150.0 mg/kg/injection, schedule: Q01DX001 (ip), vehicle: other 117 % of control

CCN(CC)CCNc1ccc([N+](=O)[O-])cc1[N+](=O)[O-]
inactive: dose: 50.0 mg/kg/injection, schedule: Q01DX009 (ip), vehicle: saline with Tween-80 88 % of control | [1] 103 % of control | [8] 102 % of control | [2] 103 % of control

COc1ccc(C(=O)C(O)O)cc1
inactive: dose: 100.0 mg/kg/injection, schedule: Q01DX009 (ip), vehicle: saline 100 % of control | [3] 103 % of control | dose: 200.0 mg/kg/injection, schedule: Q01DX009 (ip), vehicle: saline 96 % of control | [4] 98 % of control | dose: 400.0 mg/kg/injection, schedule: Q01DX009 (ip), vehicle: saline 112 % of control | [14] 103 % of control

O=C(Cc1ccc(-c2ccccc2)cc1)c1ccccc1
inactive: [15] 94 % of control | [16] 93 % of control | [17] 91 % of control

OC(CF)CCl (stereo not given)
inactive: dose: 6.25 mg/kg/injection, schedule: Q01DX009 (ip), vehicle: saline 89 % of control | [12] 96 % of control | [13] 103 % of control

CCOC(=O)CCCc1cccc(OC)c1OC
inactive: [15] 91 % of control | [16] 91 % of control | [17] 98 % of control

CCOP(OCC)N1CCCCCC1=O
inactive: [5] 100 % of control | [6] 95 % of control | [7] 89 % of control

Clc1ccc(CC23CCCCC2N3)cc1 (stereo not given)
inactive: dose: 100.0 mg/kg/injection, schedule: Q04DX003 (ip), vehicle: saline sonified 95 % of control | dose: 200.0 mg/kg/injection, schedule: Q04DX003 (ip), vehicle: saline sonified 108 % of control | dose: 400.0 mg/kg/injection, schedule: Q04DX003 (ip), vehicle: saline sonified 105 % of control

CN(Cc1ccccc1)C(=O)C(c1ccccc1)c1ccccc1
inactive: dose: 100.0 mg/kg/injection, schedule: Q04DX002 (ip), vehicle: Klucel (hydroxypropylcellulose) (HPC) 89 % of control | dose: 200.0 mg/kg/injection, schedule: Q04DX002 (ip), vehicle: Klucel (hydroxypropylcellulose) (HPC) 86 % of control | dose: 400.0 mg/kg/injection, schedule: Q04DX002 (ip), vehicle: Klucel (hydroxypropylcellulose) (HPC) 96 % of control

From PubChem BioAssay AID248 (DTP/NCI, 2004)
